{"source": "patent US20170367390A1", "about": "“USE OF ELLAGIC ACID DIHYDRATE IN FOOD PRODUCTS AND NUTRACEUTICALS” (HALO LIFE SCIENCE, LLC, priority 2014, published 2017)", "key": {"p44/42 MAPK": {"test_system": "p44/42 MAPK", "test": "p44/42 MAPK:Phos p44/42 MAPK ratio by immunocytochemistry, high-content imaging in C2C12", "format": "cell-based, mouse", "conditions": "serum starved C2C12, 30 minutes; 400 nM, 0.04 nM", "method": "Stimulation of AKT pathways and MAPK pathways in ellagic acid dihydrate, metformin, and insulin treated cell cultures was performed. Insulin stimulates glucose uptake into cells by increasing GLUT4 activation, and AKT, specifically phos-AKT, signaling alters GLUT4 translocation. […] Cellular assays were performed using mouse myoblast C2C12 cells. Relative protein levels of AKT:phos AKT and p44/42 MAPK:phos p44/42 MAPK were determined.\nSerum starved cells (1 hr) were treated for 30 minutes with each of the tested compounds. Ratios of phosphorylated to non-phosphorylated proteins were determined using immunocytochemistry labeling (anti-AKT, anti-Phos AKT; or anti-p44/42 MAPK, anti-Phos p44/42 MAPK) on a high-content imaging system (Operetta, Perkin Elmer) using the fluorescent signal of anti-rabbit Alexa 647. Increased phosphorylation is indicated as decrease in signal of AKT:Phos AKT ratio (log 2 scale) and p44/42 MAPK:Phos p44/42 MAPK ratio (log 2 scale) relative to vehicle treated cells."}, "glucose oxidase": {"molecular_target": "glucose oxidase (Aspergillus niger, UniProt P13006)", "sequence (P13006 17-605, species assumed)": "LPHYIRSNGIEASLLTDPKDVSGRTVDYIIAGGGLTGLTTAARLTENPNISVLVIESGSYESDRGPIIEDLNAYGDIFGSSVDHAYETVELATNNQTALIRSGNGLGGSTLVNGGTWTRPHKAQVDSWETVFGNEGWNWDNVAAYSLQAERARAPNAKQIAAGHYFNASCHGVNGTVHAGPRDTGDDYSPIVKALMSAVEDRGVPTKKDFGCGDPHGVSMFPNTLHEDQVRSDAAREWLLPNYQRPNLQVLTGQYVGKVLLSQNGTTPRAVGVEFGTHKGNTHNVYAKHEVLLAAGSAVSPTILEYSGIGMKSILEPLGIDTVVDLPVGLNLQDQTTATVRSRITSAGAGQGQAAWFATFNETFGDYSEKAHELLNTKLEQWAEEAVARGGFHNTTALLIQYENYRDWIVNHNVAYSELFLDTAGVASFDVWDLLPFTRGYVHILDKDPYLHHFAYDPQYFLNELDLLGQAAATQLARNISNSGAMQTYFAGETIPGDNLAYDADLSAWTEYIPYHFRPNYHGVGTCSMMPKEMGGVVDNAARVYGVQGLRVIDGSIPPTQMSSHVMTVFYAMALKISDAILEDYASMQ", "test": "Direct interaction with glucose, glucose oxidase based glucometer on serum", "format": "biochemical", "conditions": "incubated with serum at room temperature five minutes or overnight at 37° C.", "method": "Ellagic acid dihydrate was analyzed for direct interaction with glucose. A glucose oxidase based glucometer was used to measure serum glucose. Ellagic acid dihydrate was incubated with serum at room temperature for five minutes or overnight at 37° C. […] Ellagic acid dihydrate is not believed to directly interact with glucose."}, "MEF cells [1]": {"test_system": "MEF cells", "test": "Glucose uptake, 2-NBDG labeling, flow cytometry, MEFs", "format": "cell-based, mouse", "method": "Cellular assays were performed using mouse myoblast C2C12 cells and MEF cells. […] Increased glucose uptake was indicated as increasing signal of 2-NBDG ([…]) in cells. Glucose uptake assays were carried out in a final incubation volume of 50 μl consisting of, 2-NBDG), (100 μM) in 1× Phosphate Buffered Saline w/Ca+, Mg+ (PBS++). The same buffer was used for washing cells. Insulin was used as a positive control. All testing compounds were prepared in 10% DMSO and diluted 1:100 for a final concentration of 0.1% DMSO (vehicle). Cells were culture to 70-90% confluence and then washed twice with PBS++. Cells were incubated for 30 minutes at 37° C. in PBS++. Nuclear stain, HCS CellMask stain (blue, Invitrogen), and/or testing compounds (ellagic acid dihydrate, insulin, or vehicle) were added. Cells were incubated for 30 min at 37° C. Cells were washed twice with PBS++ and incubated with 2-NBDG for 10 minutes. Cells were washed thrice with PBS++ and then imaged in PBS++. Alternatively, the final PBS wash was removed and cells were incubated with Accutase (Invitrogen) for 10 min at 37° C., neutralized with 10% FBS in 1×PBS, and analyzed by flow cytometry. An additional experiment was performed to measure glucose uptake in C2Cl2 cells exposed to metformin, insulin and ellagic acid dihydrate 2 (batch 2). FIG. 5C. Glucose uptake in ellagic acid dihydrate treated cell culture was measured and compared to glucose uptake under insulin or ellagic acid treatment. […] Flow cytometry results were run in triplicate with 1000 cells per batch."}, "MEF cells [2]": {"test_system": "MEF cells", "test": "Glucose uptake, 2-NBDG labeling, high-content imaging (Operetta), MEFs", "format": "cell-based, mouse", "method": "Increased glucose uptake was indicated as increasing signal of 2-NBDG ([…]) in cells. Glucose uptake assays were carried out in a final incubation volume of 50 μl consisting of, 2-NBDG), (100 μM) in 1× Phosphate Buffered Saline w/Ca+, Mg+ (PBS++). The same buffer was used for washing cells. Insulin was used as a positive control. All testing compounds were prepared in 10% DMSO and diluted 1:100 for a final concentration of 0.1% DMSO (vehicle). Cells were culture to 70-90% confluence and then washed twice with PBS++. Cells were incubated for 30 minutes at 37° C. in PBS++. Nuclear stain, HCS CellMask stain (blue, Invitrogen), and/or testing compounds (ellagic acid dihydrate, insulin, or vehicle) were added. Cells were incubated for 30 min at 37° C. Cells were washed twice with PBS++ and incubated with 2-NBDG for 10 minutes. Cells were washed thrice with PBS++ and then imaged in PBS++. Alternatively, the final PBS wash was removed and cells were incubated with Accutase (Invitrogen) for 10 min at 37° C., neutralized with 10% FBS in 1×PBS, and analyzed by flow cytometry. An additional experiment was performed to measure glucose uptake in C2Cl2 cells exposed to metformin, insulin and ellagic acid dihydrate 2 (batch 2). FIG. 5C. Glucose uptake in ellagic acid dihydrate treated cell culture was measured and compared to glucose uptake under insulin or ellagic acid treatment. […] Flow cytometry results were run in triplicate with 1000 cells per batch."}, "GLUT4-GFP": {"test_system": "GLUT4-GFP", "test": "Localization of glucose transporter GLUT4-GFP, time-lapse confocal microscopy in C2C12", "format": "cell-based, mouse", "method": "Induction of glucose transporter, GLUT-4, in ellagic acid dihydrate treated cell cultures was studied. Cellular assays were performed using mouse myoblast C2C12 cells. The cells were infected with a fusion glucose transporter 4 green fluorescent protein (GLUT4-GFP). This protein allows the visualization of GLUT4 by imaging the GFP under fluorescent time-lapse microscopy. Frames were compiled to produce time-lapse images of cellular changes with no treatment or treatment with insulin. The localization of glucose transporter (GLUT4-GFP) was performed in final incubation volume of 505 μL, consisting of 500 μl of Hank's Buffer (Invitrogen) and 5 μl of tested compounds. Insulin was used as positive controls and vehicle (0.1% DMSO) as the negative control. All test compounds were prepared in 10% DMSO and diluted 1:100 for a final concentration of 0.1% DMSO (vehicle). The cells were rinsed in Hank's Buffer thrice and then incubated in Hank's Buffer at 37° C. for one hour. The test compounds were added (ellagic acid dihydrate, insulin, or vehicle) and the cells were imaged using laser-confocal microscopy (Leica TCS SP5 X) with FITC fluorescent filters to determine changes in GLUT4-GFP localization. Time-lapse images (TIF) were collected and post-processed using Image-J (NIH) for video construction."}}, "note": "Entries after “also recorded” stand apart in the source; their conditions may differ."}
{"smiles": "O.O.O=c1oc2c(O)c(O)cc3c(=O)oc4c(O)c(O)cc1c4c23", "note": "[ellagic acid dihydrate]", "values": [{"measurement": "p44/42 MAPK:Phos p44/42 MAPK ratio relative to vehicle", "setting": "p44/42 MAPK", "result": "increase in p44/42 MAPK"}, {"measurement": "inhibition of the glucose oxidase reaction", "setting": "glucose oxidase", "result": "no inhibition of the glucose oxidase reaction was observed"}, {"measurement": "increased glucose uptake (percent change relative to vehicle)", "setting": "MEF cells [1]; 400 nM exposure, fibroblasts (MEFs), flow cytometry", "result": 47, "unit": "%"}, {"measurement": "dose effect for increasing glucose uptake", "setting": "MEF cells [1]; MEFs, flow cytometry, 2-NBDG", "result": "dose effect for increasing glucose uptake"}, {"measurement": "increase in glucose uptake compared with ellagic acid or insulin", "setting": "MEF cells [1]; MEFs, flow cytometry, Example 5", "result": "significantly greater increase in glucose uptake than that seen in ellagic acid (EA) or insulin treatment"}, {"measurement": "glucose uptake (2-NBDG signal) relative to vehicle", "setting": "MEF cells [1]; MEFs, flow cytometry, vehicle 0.1% DMSO", "result": "significantly greater than vehicle treated"}, {"measurement": "glucose uptake relative to insulin", "setting": "MEF cells [1]; fibroblasts (MEFs), at most concentrations tested / equal concentrations, dihydrate", "result": "significantly more glucose uptake relative to insulin; also recorded: exceeded the uptake induced by insulin"}, {"measurement": "dose effect for increasing glucose uptake", "setting": "MEF cells [2]", "result": "dose effect for increasing glucose uptake"}, {"measurement": "glucose uptake (2-NBDG signal)", "setting": "MEF cells [2]; versus vehicle (Neg, 0.1% DMSO)", "result": "significantly greater than vehicle treated (Neg, 0.1% DMSO) or Insulin treated cells"}, {"measurement": "timing of GLUT4-GFP/membrane process compared with insulin", "setting": "GLUT4-GFP; C2C12, 4000 nM", "result": "slightly delayed"}, {"measurement": "GLUT4-GFP localization", "setting": "GLUT4-GFP; C2C12, 4000 nM exposure", "result": "decrease in nuclear GLUT4-GFP"}, {"measurement": "ruffling of filopodia at the surface of the cell", "setting": "GLUT4-GFP; C2C12, 4000 nM exposure", "result": "rapid ruffling of filopodia at the surface of the cell"}]}
